Earlier results in patent US20090093865A1, “METHOD AND SYSTEM FOR CONTROLLING THE SPREAD OF MICROORGANISMS AMONG SUBJECTS IN A GROUP” (priority 2006, published 2009).

Tested on: methicillin-resistant Staphylococcus aureus
Settings: randomized controlled trial of mupirocin versus placebo (Harbarth et al. 1999)

For `C/C(=C\C(=O)OCCCCCCCCC(=O)O)C[C@@H]1OC[C@H](C[C@@H]2O[C@H]2[C@@H](C)[C@H](C)O)[C@@H](O)[C@H]1O` [mupirocin], the “carriers in whom methicillin-resistant S. aureus was successfully eradicated” value is listed as 44%.
